According to PMC6177136, “Hybrid topoisomerase I and HDAC inhibitors as dual action anticancer agents” (PLoS ONE, 2018):

How the values were obtained:
MM487 = test: Cytotoxicity assay, primary mesothelioma MM487; assay type: cell-based, Human; conditions: Homo sapiens, MM487; biphasic, 72 h, SBR assay; read-out: IC50 ± SD MM487
OCI-LY3 = test: Cytotoxicity assay (MTT, 72 h) OCI-LY3; assay type: cell-based, Human; conditions: Homo sapiens, OCI-Ly3; 72 h, MTT assay; read-out: IC50 ± SD OCI-LY3
Method: (§1) Human tumor cells were seeded in 96-well cell culture plastic plates, allowed to attach, and exposed to scalar concentrations of the test compounds.

MM481 = test: Cytotoxicity assay, primary mesothelioma MM481; assay type: cell-based, Human; conditions: Homo sapiens; epithelioid, 72 h, SBR assay; read-out: IC50 ± SD MM481
Z-138 = test: Cytotoxicity assay (MTT, 72 h) Z-138; assay type: cell-based; conditions: Homo sapiens, read-out: IC50 ± SD Z-138
RAJI = test: Cytotoxicity assay (MTT, 72 h) RAJI; assay type: cell-based; conditions: Homo sapiens, read-out: IC50 ± SD RAJI
RAMOS = test: Cytotoxicity assay (MTT, 72 h) RAMOS; assay type: cell-based; conditions: Homo sapiens, read-out: IC50 ± SD RAMOS
MM473 = test: Cytotoxicity assay, primary mesothelioma MM473; assay type: cell-based, Human; conditions: Homo sapiens, MM473; epithelioid, 72 h, SBR assay; read-out: IC50 ± SD MM473
U937 = test: Cytotoxicity assay (MTT, 72 h) U937; assay type: cell-based; conditions: Homo sapiens, U-937, read-out: IC50 ± SD U937
p21 = test: Western blot, p21 in NCI-H460 cells; assay type: cell-based, Human; conditions: 24 h; SAHA 5 μM, SN38 0.05 μM, 3d 0.125–0.2–0.5 μM
Method: (§2) The supernatant, containing the total proteins extracts, were transferred in new vials. The protein concentration was measured by Bradford Protein Assay. Equal amounts of proteins for each sample were then resolved by SDS-PAGE and loaded on 10–12% polyacrilamide gels. The proteins were then transferred on nitrocellulose membranes. Molecular weights were estimated based upon the relative migration with molecular weight protein markers.
(§3) The non-specific binding was blocked by incubation of membranes in TBS-tween (25 mM Tris, 150 mM NaCl, 0.1% Tween 20) with 5% nonfat dry milk (BIORAD, Milan) for 60 minutes. Subsequently, the membrane was incubated overnight with primary antibodies: anti-Histone H4 (Millipore, 1:500), anti-acetyl-H4 (Santa Cruz, 1:1000) anti-p21 (Santa Cruz, 1:1000), anti-acetyl-tubulin (abcam, 1:1000), anti-α-tubulin (Sigma, 1:5000), anti β-actin (Sigma, 1:5000) and anti-Topoisomerase 1 (Santa Cruz, 1:500). After three washes with TBST blots were incubated with HRP-coniugated secondary anti-mouse and anti-rabbit (Santa Cruz, 1:5000) 1 hour at room temperature. After three washes with TBST the blots were developed with ECL substrate (GE Healthcare) and chemiluminescence detected by ChemiDoc Imaging System (Biorad). The optical density of the protein bands detected by western blotting was normalized on α -tubulin levels and analyzed by ChemiDoc software (Biorad). […]

Top1 = test: Western blot, Top1 expression in NCI-H460 cells; assay type: cell-based, Human; conditions: 24 h; SAHA 5 μM, SN38 0.05 μM, 3d 0.125–0.2–0.5 μM
Method: as §2, §3

A2780 = test: Cytotoxicity assay (SRB, 72 h) A2780; assay type: cell-based, Human; conditions: Homo sapiens, A2780, read-out: IC50 ± SD A2780
DG-75 = test: Cytotoxicity assay (MTT, 72 h) DG-75; assay type: cell-based, Human; conditions: Homo sapiens, DG-75; 72 h, MTT assay; read-out: IC50 ± SD DG-75
JECO-1 = test: Cytotoxicity assay (MTT, 72 h) JECO-1; assay type: cell-based, Human; conditions: Homo sapiens; 72 h, MTT assay; read-out: IC50 ± SD JECO-1
MAVER-2 = test: Cytotoxicity assay (MTT, 72 h) MAVER-2; assay type: cell-based, Human; conditions: Homo sapiens, read-out: IC50 ± SD MAVER-2
U-2932 = test: Cytotoxicity assay (MTT, 72 h) U-2932; assay type: cell-based, Human; conditions: Homo sapiens, U2932, read-out: IC50 ± SD U-2932
ARH-77 = test: Cytotoxicity assay (MTT, 72 h) ARH-77; assay type: cell-based; conditions: Homo sapiens, read-out: IC50 ± SD ARH-77
[1] = test system: hematologic cancer cell lines; test: Screening on hematologic cancer cell lines (summary); assay type: cell-based; conditions: Homo sapiens, read-out: IC50 across hematologic cancer cell lines (Tables 5 and 6); span over the cell line panel, 72 h, MTT assay
RPMI-8226 = test: Cytotoxicity assay (MTT, 72 h) RPMI-8226; assay type: cell-based; conditions: Homo sapiens, read-out: IC50 ± SD RPMI-8226
Method: as §1

Acetylated Tubulin = test: Western blot, acetylation of tubulin in NCI-H460 cells; assay type: cell-based, Human; conditions: 24 h; SN38 0.05 μM, SAHA 5 μM, 3b and 3d 0.125–0.2–0.5 μM
Method: as §2, §3

p53 = test: Western blot, p53 in NCI-H460 cells; assay type: cell-based, Human; conditions: 24 h; SAHA 5 μM, SN38 0.05 μM, 3d 0.125–0.2–0.5 μM
Method: as §2
(§4) The non-specific binding was blocked by incubation of membranes in TBS-tween (25 mM Tris, 150 mM NaCl, 0.1% Tween 20) with 5% nonfat dry milk (BIORAD, Milan) for 60 minutes. Subsequently, the membrane was incubated overnight with primary antibodies: anti-Histone H4 (Millipore, 1:500), anti-acetyl-H4 (Santa Cruz, 1:1000) anti-p21 (Santa Cruz, 1:1000), anti-acetyl-tubulin (abcam, 1:1000), anti-α-tubulin (Sigma, 1:5000), anti β-actin (Sigma, 1:5000) and anti-Topoisomerase 1 (Santa Cruz, 1:500). After three washes with TBST blots were incubated with HRP-coniugated secondary anti-mouse and anti-rabbit (Santa Cruz, 1:5000) 1 hour at room temperature. After three washes with TBST the blots were developed with ECL substrate (GE Healthcare) and chemiluminescence detected by ChemiDoc Imaging System (Biorad). The optical density of the protein bands detected by western blotting was normalized on α -tubulin levels and analyzed by ChemiDoc software (Biorad).
(§5) Cells were lysed in 0.5% NP-40 and 40 μg of total proteins were loaded on NuPAGE 4–12% (Invitrogen), transferred to a nitrocellulose paper and probed with specific antibodies.

p16 = test: Western blot, p16 in NCI-H460 cells; assay type: cell-based, Human; conditions: 24 h; SAHA 5 μM, SN38 0.05 μM, 3d 0.125–0.2–0.5 μM
Method: as §2, §4, §5

MM317 = test: Cytotoxicity assay, primary mesothelioma MM317; assay type: cell-based, Human; conditions: Homo sapiens; epithelioid, 72 h, SBR assay; read-out: IC50 ± SD MM317
K 562 = test: Cytotoxicity assay (MTT, 72 h) K 562; assay type: cell-based; conditions: Homo sapiens, K562, read-out: IC50 ± SD K 562
HDAC6 = HDAC6 (Homo sapiens, UniProt Q9UBN7); test: HDAC profiling HDAC6; assay type: biochemical; conditions: purified isoform, 10 concentrations from 10 μM, triplicate
Sequence of HDAC6 (Q9UBN7 whole entry, canonical isoform): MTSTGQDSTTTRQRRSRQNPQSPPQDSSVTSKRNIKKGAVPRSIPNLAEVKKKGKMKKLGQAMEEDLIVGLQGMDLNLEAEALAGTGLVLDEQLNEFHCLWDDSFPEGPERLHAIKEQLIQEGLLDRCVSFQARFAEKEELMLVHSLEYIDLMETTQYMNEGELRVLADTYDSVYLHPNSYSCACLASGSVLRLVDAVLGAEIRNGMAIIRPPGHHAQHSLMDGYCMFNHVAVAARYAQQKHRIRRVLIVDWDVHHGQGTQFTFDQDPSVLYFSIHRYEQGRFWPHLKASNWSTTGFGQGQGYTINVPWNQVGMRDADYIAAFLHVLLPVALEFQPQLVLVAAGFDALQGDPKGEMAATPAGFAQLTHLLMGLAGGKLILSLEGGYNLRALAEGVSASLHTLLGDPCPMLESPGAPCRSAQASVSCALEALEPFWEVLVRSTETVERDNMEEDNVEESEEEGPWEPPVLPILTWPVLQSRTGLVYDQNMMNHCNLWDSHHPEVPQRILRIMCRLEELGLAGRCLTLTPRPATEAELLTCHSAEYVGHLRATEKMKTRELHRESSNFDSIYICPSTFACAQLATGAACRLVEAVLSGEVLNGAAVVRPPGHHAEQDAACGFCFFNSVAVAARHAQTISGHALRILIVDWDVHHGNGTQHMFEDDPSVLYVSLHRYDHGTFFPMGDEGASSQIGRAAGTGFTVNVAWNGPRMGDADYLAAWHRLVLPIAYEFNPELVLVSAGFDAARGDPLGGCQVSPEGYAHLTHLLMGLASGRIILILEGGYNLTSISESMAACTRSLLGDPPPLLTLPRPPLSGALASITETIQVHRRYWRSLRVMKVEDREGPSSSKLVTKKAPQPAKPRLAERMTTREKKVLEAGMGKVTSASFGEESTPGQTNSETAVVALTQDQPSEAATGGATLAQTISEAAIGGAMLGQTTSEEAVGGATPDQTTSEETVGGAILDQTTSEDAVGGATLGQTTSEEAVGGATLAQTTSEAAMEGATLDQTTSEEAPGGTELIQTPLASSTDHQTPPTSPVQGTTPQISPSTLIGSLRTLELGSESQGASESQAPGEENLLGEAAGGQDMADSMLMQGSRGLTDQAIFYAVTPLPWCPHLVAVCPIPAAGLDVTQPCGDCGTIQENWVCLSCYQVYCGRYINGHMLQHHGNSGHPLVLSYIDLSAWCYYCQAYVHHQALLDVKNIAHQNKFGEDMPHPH

THP1 = test: Cytotoxicity assay (MTT, 72 h) THP1; assay type: cell-based; conditions: Homo sapiens, THP-1, read-out: IC50 ± SD THP1
HeLa = test: Cytotoxicity assay (SRB, 72 h) HeLa; assay type: cell-based, Human; conditions: Homo sapiens, HeLa, read-out: IC50 ± SD HeLa
CycD1 = test: Western blot, CycD1 in NCI-H460 cells; assay type: cell-based, Human; conditions: 24 h; SAHA 5 μM, SN38 0.05 μM, 3d 0.125–0.2–0.5 μM
Method: as §2, §4, §5

MM404 = test: Cytotoxicity assay, primary mesothelioma MM404; assay type: cell-based, Human; conditions: Homo sapiens; epithelioid, 72 h, SBR assay; read-out: IC50 ± SD MM404

`CC[C@@]1(O)C(=O)OCc2c1cc1n(c2=O)Cc2c-1nc1ccc(O)cc1c2C=NOCCCCCC(=O)NO` [Compound 3d, 6-(10-hydroxycamptothecin-7-ylmethyleneaminooxy)-hexanoic acid hydroxyamide] showed an IC50 (MM487) of 200 ± 50 nM, an IC50 (OCI-LY3) of 18 ± 5 nM and an IC50 (MM481) of 11700 ± 1200 nM. For the same compound, the IC50 (Z-138) was 6 ± 1 nM, the IC50 (RAJI) was 77 ± 20 nM and the IC50 (RAMOS) was 990 ± 100 nM. For the same compound, the IC50 (MM473) was 2100 ± 500 nM, the IC50 (U937) was 180 ± 50 nM and the “expression of p21” value (p21) was “activated the expression of p21”. For the same compound, the “expression of Top1” value (Top1) was “drastically reduced the expression of Top1”, the IC50 (A2780) was 270 ± 80 nM and the IC50 (DG-75) was 1900 ± 200 nM. The IC50 (JECO-1) was 23 ± 6 nM, the IC50 (MAVER-2) was 12 ± 1 nM and the IC50 (U-2932) was 44 ± 10 nM. For the same compound, the IC50 (ARH-77) was 210 ± 60 nM, the IC50 [1] was 6 to 4000 nM and the IC50 (RPMI-8226) was 4100 ± 1400 nM. The “accumulation of acetylated tubulin” value (Acetylated Tubulin) was “H4 and tubulin acetylation in a dose dependent manner”, the p53 activation (p53) was “induced p53 activation” and the P16 regulation (p16) was “didn’t show any effect”. The IC50 (MM317) was 850 ± 200 nM, the IC50 (K 562) was 940 ± 200 nM and the IC50 (HDAC6) was 1.56 nM. The IC50 (THP1) was 220 ± 90 nM, the IC50 (HeLa) was 180 ± 50 nM and the CycD1 regulation (CycD1) was “didn’t show any effect”. The IC50 (MM404) was 1400 ± 300 nM.
